Measured values published in article PMC11167047 (Cell Death Discovery, 2024).

Assays:
Assay in all cases: kinome screen (33PanQinase)
Format in all cases: biochemical
MST1 = molecular target: T1, MST1 (Homo sapiens, UniProt Q13043)
T1 construct: purchased Reaction Biology Europe GmbH (formerly ProQinase)
T1 sequence (Q13043 1-487): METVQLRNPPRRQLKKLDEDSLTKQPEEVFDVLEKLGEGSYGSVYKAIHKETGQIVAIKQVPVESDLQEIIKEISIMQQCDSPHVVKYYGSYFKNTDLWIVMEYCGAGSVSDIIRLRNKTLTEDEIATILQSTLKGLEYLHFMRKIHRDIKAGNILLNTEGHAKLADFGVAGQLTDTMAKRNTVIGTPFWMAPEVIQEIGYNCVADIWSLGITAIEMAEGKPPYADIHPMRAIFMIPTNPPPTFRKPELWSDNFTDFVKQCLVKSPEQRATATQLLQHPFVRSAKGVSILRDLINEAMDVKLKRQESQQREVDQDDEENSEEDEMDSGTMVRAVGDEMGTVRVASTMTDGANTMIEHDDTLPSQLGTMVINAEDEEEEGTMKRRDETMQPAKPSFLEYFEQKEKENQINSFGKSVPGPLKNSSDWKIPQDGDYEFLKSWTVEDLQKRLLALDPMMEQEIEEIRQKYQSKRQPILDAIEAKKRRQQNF
Protocol: (§1) The Kinome Screening was performed by Reaction Biology Europe GmbH (http://reactionbiology.com; Freiburg i. Br., Germany).

TEC = molecular target: T2, TEC (Homo sapiens, UniProt P42680)
T2 construct: purchased Reaction Biology Europe GmbH (formerly ProQinase)
T2 sequence (P42680 1-631): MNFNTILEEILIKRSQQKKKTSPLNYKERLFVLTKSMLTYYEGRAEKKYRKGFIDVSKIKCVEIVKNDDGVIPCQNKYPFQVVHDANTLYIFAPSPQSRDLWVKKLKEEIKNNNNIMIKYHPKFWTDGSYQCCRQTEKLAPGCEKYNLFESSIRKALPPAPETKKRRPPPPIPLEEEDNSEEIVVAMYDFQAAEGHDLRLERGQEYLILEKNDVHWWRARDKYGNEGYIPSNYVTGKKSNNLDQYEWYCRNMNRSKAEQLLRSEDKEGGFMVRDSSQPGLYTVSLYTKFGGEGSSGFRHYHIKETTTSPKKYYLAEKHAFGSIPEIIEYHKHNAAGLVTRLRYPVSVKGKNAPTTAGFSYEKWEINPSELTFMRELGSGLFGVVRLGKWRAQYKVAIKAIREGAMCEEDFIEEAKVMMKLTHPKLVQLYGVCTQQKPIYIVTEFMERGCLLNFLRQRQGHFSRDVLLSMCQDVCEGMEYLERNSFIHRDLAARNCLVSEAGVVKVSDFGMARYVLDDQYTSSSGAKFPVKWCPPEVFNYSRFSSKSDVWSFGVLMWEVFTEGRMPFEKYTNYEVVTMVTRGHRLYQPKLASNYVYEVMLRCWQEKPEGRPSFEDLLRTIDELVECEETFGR
Protocol: as §1

MST2 = molecular target: T3, MST2 (Homo sapiens, UniProt Q13188)
T3 construct: purchased Reaction Biology Europe GmbH (formerly ProQinase)
T3 sequence (Q13188 1-491): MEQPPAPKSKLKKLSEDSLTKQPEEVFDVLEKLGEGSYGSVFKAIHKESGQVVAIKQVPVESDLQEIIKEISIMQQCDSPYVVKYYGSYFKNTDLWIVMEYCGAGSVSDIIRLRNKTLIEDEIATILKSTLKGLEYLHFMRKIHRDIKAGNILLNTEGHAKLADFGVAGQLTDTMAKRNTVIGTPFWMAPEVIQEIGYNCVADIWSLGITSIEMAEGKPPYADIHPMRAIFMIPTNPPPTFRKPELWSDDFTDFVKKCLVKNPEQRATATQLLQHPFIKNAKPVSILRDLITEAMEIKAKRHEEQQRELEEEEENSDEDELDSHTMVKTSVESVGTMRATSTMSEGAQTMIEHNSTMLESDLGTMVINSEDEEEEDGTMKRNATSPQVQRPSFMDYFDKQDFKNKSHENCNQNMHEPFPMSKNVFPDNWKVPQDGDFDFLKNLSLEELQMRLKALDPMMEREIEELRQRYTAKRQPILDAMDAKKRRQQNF
Protocol: as §1

NEK3 = molecular target: T4, NEK3 (Homo sapiens, UniProt P51956)
T4 construct: purchased Reaction Biology Europe GmbH (formerly ProQinase)
T4 sequence (P51956 1-506): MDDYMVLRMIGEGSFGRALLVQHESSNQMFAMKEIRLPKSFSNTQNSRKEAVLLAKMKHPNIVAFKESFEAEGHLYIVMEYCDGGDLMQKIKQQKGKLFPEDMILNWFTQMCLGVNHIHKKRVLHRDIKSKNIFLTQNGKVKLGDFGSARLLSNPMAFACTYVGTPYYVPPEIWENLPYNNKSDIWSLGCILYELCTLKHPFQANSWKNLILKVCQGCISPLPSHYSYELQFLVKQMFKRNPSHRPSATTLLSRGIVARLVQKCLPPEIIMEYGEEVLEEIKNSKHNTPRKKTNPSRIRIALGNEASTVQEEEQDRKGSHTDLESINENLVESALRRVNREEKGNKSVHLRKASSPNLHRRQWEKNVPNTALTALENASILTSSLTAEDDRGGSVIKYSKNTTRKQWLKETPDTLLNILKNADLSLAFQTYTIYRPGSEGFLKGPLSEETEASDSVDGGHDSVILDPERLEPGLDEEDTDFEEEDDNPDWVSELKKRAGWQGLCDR
Protocol: as §1

NEK4 = molecular target: T5, NEK4 (Homo sapiens, UniProt P51957)
T5 construct: purchased Reaction Biology Europe GmbH (formerly ProQinase)
Protocol: as §1

JAK1 = molecular target: T6, JAK1 (Homo sapiens, UniProt P23458)
T6 construct: purchased Reaction Biology Europe GmbH (formerly ProQinase)
Protocol: as §1

T6 sequence (P23458 whole entry): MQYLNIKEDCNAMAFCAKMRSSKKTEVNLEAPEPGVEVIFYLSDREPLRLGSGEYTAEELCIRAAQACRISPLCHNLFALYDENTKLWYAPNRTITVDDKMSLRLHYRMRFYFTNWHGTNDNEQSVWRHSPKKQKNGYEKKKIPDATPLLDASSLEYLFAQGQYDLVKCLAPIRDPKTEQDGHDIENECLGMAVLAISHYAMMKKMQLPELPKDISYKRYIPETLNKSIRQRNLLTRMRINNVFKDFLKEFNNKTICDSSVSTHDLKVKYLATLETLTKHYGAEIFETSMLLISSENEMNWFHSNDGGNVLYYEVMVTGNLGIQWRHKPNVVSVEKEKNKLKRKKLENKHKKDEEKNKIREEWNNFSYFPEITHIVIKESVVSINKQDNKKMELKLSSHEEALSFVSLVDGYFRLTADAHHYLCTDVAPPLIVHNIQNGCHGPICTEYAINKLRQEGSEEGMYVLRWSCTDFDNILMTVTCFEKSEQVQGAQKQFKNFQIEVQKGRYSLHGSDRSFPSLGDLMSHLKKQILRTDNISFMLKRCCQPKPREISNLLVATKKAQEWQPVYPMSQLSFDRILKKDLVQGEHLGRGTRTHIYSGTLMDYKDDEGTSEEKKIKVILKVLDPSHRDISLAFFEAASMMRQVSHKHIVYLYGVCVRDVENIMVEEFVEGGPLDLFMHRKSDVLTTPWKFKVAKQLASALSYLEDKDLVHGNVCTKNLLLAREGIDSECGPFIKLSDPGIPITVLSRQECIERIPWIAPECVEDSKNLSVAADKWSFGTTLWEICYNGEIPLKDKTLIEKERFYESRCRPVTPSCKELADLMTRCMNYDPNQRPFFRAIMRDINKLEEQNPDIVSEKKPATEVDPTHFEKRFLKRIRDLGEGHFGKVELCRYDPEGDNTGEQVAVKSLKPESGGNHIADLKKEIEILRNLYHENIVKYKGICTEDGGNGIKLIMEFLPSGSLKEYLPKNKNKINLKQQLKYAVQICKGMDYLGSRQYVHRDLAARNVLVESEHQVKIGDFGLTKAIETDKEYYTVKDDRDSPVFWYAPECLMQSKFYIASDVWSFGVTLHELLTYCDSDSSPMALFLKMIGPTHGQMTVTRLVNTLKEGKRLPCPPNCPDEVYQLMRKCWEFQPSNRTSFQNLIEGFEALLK
T5 sequence (P51957 whole entry): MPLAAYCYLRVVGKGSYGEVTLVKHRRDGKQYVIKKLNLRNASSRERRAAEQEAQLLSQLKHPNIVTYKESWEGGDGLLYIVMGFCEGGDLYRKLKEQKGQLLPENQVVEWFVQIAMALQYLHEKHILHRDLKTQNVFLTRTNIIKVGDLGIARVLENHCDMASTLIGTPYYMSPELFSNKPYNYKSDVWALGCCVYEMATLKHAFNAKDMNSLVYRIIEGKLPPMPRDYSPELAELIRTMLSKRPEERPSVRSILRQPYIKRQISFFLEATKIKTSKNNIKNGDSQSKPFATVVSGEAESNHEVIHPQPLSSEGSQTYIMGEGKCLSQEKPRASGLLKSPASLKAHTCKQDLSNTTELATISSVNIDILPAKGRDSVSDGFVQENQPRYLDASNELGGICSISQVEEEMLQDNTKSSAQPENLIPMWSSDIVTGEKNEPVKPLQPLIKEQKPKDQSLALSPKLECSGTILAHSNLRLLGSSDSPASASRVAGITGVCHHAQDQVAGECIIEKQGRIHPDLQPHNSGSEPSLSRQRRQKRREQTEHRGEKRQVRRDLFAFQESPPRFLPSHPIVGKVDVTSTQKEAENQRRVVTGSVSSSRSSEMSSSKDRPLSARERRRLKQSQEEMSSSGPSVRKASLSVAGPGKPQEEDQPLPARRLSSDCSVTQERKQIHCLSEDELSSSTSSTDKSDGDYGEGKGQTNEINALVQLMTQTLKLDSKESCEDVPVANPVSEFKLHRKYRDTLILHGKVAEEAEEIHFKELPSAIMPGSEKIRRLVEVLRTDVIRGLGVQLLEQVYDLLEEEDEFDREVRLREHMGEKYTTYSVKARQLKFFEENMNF

With `c1ccc(CNc2cc(-c3c[nH]c4ncccc34)ccn2)cc1` [meriolin 36] the residual kinase activity (MST1; 0.3 µM) was 4 % of control, the residual kinase activity (MST1; 3 µM) was 1 % of control and the residual kinase activity (TEC; 0.3 µM) was 114 % of control. For the same molecule, the residual kinase activity (TEC; 3 µM) was 96 % of control, the residual kinase activity (MST2; 0.3 µM) was 19 % of control and the residual kinase activity (MST2; 3 µM) was 4 % of control. For the same molecule, the residual kinase activity (NEK3; 0.3 µM) was 94 % of control, the residual kinase activity (NEK3; 3 µM) was 79 % of control and the residual kinase activity (NEK4; 0.3 µM) was 84 % of control. The residual kinase activity (NEK4; 3 µM) was 37 % of control, the residual kinase activity (JAK1; 0.3 µM) was 58 % of control and the residual kinase activity (JAK1; 3 µM) was 25 % of control.
`COc1ccnc2[nH]cc(-c3cc(N)nc(N)c3)c12` [meriolin 16] was tested, and the residual kinase activity (MST1; 0.03 µM) was 88 % of control, the residual kinase activity (MST1; 0.3 µM) was 49 % of control and the residual kinase activity (TEC; 0.03 µM) was 110 % of control. The residual kinase activity (TEC; 0.3 µM) was 101 % of control, the residual kinase activity (MST2; 0.03 µM) was 100 % of control and the residual kinase activity (MST2; 0.3 µM) was 77 % of control. For the same molecule, the residual kinase activity (NEK3; 0.03 µM) was 96 % of control, the residual kinase activity (NEK3; 0.3 µM) was 78 % of control and the residual kinase activity (NEK4; 0.03 µM) was 89 % of control. For the same molecule, the residual kinase activity (NEK4; 0.3 µM) was 47 % of control, the residual kinase activity (JAK1; 0.03 µM) was 78 % of control and the residual kinase activity (JAK1; 0.3 µM) was 86 % of control.
